From article PMC3336786 (The FASEB Journal, 2012)
Numbering of substitutions follows the chain as printed.

What was measured:
[1] = target: T1, RDLA2'V (Drosophila melanogaster, UniProt P25123, A301V); assay: cell-based; format: cell-based
T1 sequence (P25123 45-606 A301V): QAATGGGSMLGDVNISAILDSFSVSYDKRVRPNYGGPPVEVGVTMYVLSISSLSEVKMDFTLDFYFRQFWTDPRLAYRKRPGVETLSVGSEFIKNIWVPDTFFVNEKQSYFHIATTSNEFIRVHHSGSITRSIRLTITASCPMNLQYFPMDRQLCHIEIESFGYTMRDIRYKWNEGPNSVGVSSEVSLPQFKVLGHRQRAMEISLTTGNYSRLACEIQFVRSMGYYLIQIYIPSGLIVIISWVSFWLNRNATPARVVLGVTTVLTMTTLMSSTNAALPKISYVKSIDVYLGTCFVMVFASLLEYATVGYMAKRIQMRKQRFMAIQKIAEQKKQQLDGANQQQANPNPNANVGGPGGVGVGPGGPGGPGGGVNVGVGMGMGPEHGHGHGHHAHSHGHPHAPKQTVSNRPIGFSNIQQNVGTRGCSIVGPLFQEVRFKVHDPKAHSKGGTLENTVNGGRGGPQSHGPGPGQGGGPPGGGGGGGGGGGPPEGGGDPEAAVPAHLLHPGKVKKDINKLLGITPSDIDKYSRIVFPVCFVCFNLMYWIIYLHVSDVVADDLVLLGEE

[2] = target: T2, RDLT6'V (Drosophila melanogaster, UniProt P25123, T305V); assay: Two-electrode voltage clamp of RDLT6'V mutant receptors in Xenopus oocytes; format: cell-based
T2 sequence (P25123 45-606 T305V): T1 sequence (P25123 45-606 A301V) with V257A, T261V

Row | Compound | IC50 [1] | IC50 [2]
1 | CC(C)(C)[C@]1(O)CC2OC(=O)CC23C(=O)OC2OC(=O)[C@H](O)C231 (stereo partly shown) [BB, bilobalide] | 224 µM | > 1000 µM
2 | C[C@@H]1C(=O)O[C@H]2C[C@@]34[C@H]5C[C@@H](C(C)(C)C)[C@]36[C@@H](OC(=O)[C@@H]6O)O[C@@]4(C(=O)O5)[C@]21O [GA, ginkgolide A] | 360 µM | > 1000 µM
